Results on eight compounds are retold here after US9421237B2, “Tripeptide boronic acid or boronic ester, preparative method and use thereof” (PEKING UNIVERSITY, priority 2009, dated 2016).

In series [1] the test system is HL-60 human leukemia cell. Nature of the series: Preliminary anti-tumor screening in vitro, MTT method. In kind it is cell-based. Further details: key to Test results: +++: inhibition rates at three doses are greater than 50%; ++: inhibition rates at two doses are greater than 50%; +: inhibition rate at one dose is greater than 50%. The conditions noted are these: HL-60, MTT; for Test results: number of doses with inhibition > 50%; for inhibition at 0.05 µM / inhibition at 0.5 µM / inhibition at 5 µM: Homo sapiens, read-out: Inhibition rate %. The method, then: (§1) The test methods used in this test example is the routine method for anti-tumor activities test in pharmaceutical area, for example, referring to the following reference: (J. Immunol Method, 1983, 65, 55).
(§2) Test models: A: MTT method (HL-60 human leukemia); B: SRB method (BGC-823 human gastric cancer); C: SRB method (Bel-7402 human hepatocarcinoma); D: SRB method (KB human nasopharyngeal carcinoma).
(§3) The aforesaid tests were carried out with the compounds of Examples 1-26 in the present invention, test results are shown in Tables 2-5.

The target of series [2] is T1, 20S proteasome extracted from rat liver, peptidyl-glutamyl-peptide-hydrolyzing (PGPH) enzyme activity (Rattus norvegicus, UniProt P28073+Q9JHW0).
T1 construct: 20S proteasome extracted from rat liver; from tissue; host or cells: rat liver
The series is described as follows: Proteasome inhibition, PGPH activity, fluorescent peptide Z-leu-leu-Glu-βNA. In kind it is biochemical. The conditions noted are these: rat liver 20S proteasome, 37° C., 1 h. The protocol:
(§4) The activities of the proteasome were assayed using fluorescent peptides: Suc-leu-leu-Val-Tyr-AMC (Suc represents succinyl, and AMC represents 7-amino-4-methylcoumarin, purchased from SIGMA) for determining chymotryptic-like (CT-L) activity; Z-Ala-Arg-Arg-AMC (Z represents benzyloxycarbonyl, purchased from Calbiochem) for determining trypsin-like (TL) activity; and Z-leu-leu-Glu-βNA (βNA represents β-naphtylamide, purchased from SIGMA) for determining peptidyl-glutamyl-peptide-hydrolyzing (PGPH) enzyme activity.
(§5) Method for the aforesaid activity assays is as follows: 1 μg of 20S proteasome extracted from rat liver was incubated with a 100 μL solution containing various concentrations of compounds, 50 μM fluorescent peptides and 20 mM Tris-HCl at 37° C. for 1 h, respectively. The fluorescence released from AMC and RNA reagents was measured by a spectrofluorimeter Fluostar OPTIMA and BMG Germany at excitation/emission wavelengths of 380/440 nm and 335/410 nm, respectively. 0.1% DMSO was used as a solvent control. Compared with the fluorescence of solvent control, an inhibition rate was calculated. Said assays used anticancer drug bortezomib (leukemia drug), namely PS341 as compound for positive control.

Series [3] addresses T2, 20S proteasome extracted from rat liver, chymotryptic-like (CT-L) activity (Rattus norvegicus, UniProt P18421+P28075).
T2 construct: 20S proteasome extracted from rat liver; from tissue; host or cells: rat liver
Nature of the series: Proteasome inhibition, chymotryptic-like (CT-L) activity, fluorescent peptide Suc-leu-leu-Val-Tyr-AMC. In kind it is biochemical. Conditions: rat liver 20S proteasome, 37° C., 1 h. The method, then: as §4
Method for the aforesaid activity assays is as follows: 1 μg of 20S proteasome extracted from rat liver was incubated with a 100 μL solution containing various concentrations of compounds, 50 μM fluorescent peptides and 20 mM Tris-HCl at 37° C. for 1 h, respectively. The fluorescence released from AMC and RNA reagents was measured by a spectrofluorimeter Fluostar OPTIMA and BMG Germany at excitation/emission wavelengths of 380/440 nm and 335/410 nm, respectively. 0.1% DMSO was used as a solvent control. Compared with the fluorescence of solvent control, an inhibition rate was calculated.

Series [4] relates to BGC-823 human gastric cancer cell. Nature of the series: Preliminary anti-tumor screening in vitro, SRB method. The conditions noted are these: BGC-823, SRB; for Test results: number of doses with inhibition > 50%; for inhibition at 0.05 µM / inhibition at 0.5 µM / inhibition at 5 µM: Homo sapiens, read-out: Inhibition rate %. Also noted: key to Test results: +++: inhibition rates at three doses are greater than 50%; ++: inhibition rates at two doses are greater than 50%; +: inhibition rate at one dose is greater than 50%. In kind it is cell-based. The method, then: as §1, §2, §3

For series [5], the system named is Bel-7402 human hepatocarcinoma cell. The series is described as above. In kind it is cell-based. Also noted: key to Test results: +++: inhibition rates at three doses are greater than 50%; ++: inhibition rates at two doses are greater than 50%; +: inhibition rate at one dose is greater than 50%. Conditions: Bel-7402, SRB; for Test results: number of doses with inhibition > 50%; for inhibition at 0.05 µM / inhibition at 0.5 µM / inhibition at 5 µM: Homo sapiens, read-out: Inhibition rate %. The method, then:
as §1, §2, §3

In series [6] the test system is KB human nasopharyngeal carcinoma cell. The series is described as above. In kind it is cell-based. Also noted: key to Test results: +++: inhibition rates at three doses are greater than 50%; ++: inhibition rates at two doses are greater than 50%; +: inhibition rate at one dose is greater than 50%. Conditions: for inhibition at 0.05 µM / inhibition at 0.5 µM / inhibition at 5 µM: Homo sapiens, read-out: Inhibition rate %; for Test results: number of doses with inhibition > 50%. The method, then:
as §1, §2, §3

In series [7] the target is T3, 20S proteasome extracted from rat liver, trypsin-like (TL) activity (Rattus norvegicus, UniProt P40112+Q9JHW0).
T3 construct: 20S proteasome extracted from rat liver; from tissue; host or cells: rat liver
The series is described as follows: Proteasome inhibition, trypsin-like (TL) activity, fluorescent peptide Z-Ala-Arg-Arg-AMC. In kind it is biochemical. Conditions: rat liver 20S proteasome, 37° C., 1 h; read-out: T-L (IC50). The protocol:
as §4, §5

The term melting point denotes the temperature, or range, at which the solid turns liquid. What is called inhibition is the relative decrease from the control value, in per cent. What is called IC50 is the point on the concentration scale where inhibition reaches its midpoint. The compound `CC(C)C[C@H](NC(=O)[C@H](Cc1ccc2ccccc2c1)NC(=O)[C@H](CC(C)C)NC(=O)c1cnccn1)B1OC2CC3C[C@@H](C3(C)C)[C@]2(C)O1` (stereo partly drawn) [Compound 5f, Pinanediol N-pyrazineformyl-L-leucyl-L-naphthylalanyl-L-leucineborate] displayed a melting point of 140 to 142 °C. Further, in series [1], the Test results is reported as “++”, the inhibition at 0.05 µM is -19.9%, the inhibition at 0.5 µM worked out at 81.9% and the inhibition at 5 µM was 88.6%. The half-inhibitory concentration (IC50) in series [2] came out at 3.91 ± 1.72 nM. This compound displayed an IC50 in series [3] of 0.37 ± 0.141 nM. Further, in series [4], the Test results is on record as “++”, the inhibition at 0.05 µM stood at 38.3%, the inhibition at 0.5 µM is 89.2% and the inhibition at 5 µM was found to be 83%. Besides, in series [5], the Test results is “++”, the inhibition at 0.05 µM was found to be 3.18%, the inhibition at 0.5 µM turned out to be 83.9% and the inhibition at 5 µM was 92.3%. For the same compound, in series [6], the inhibition at 0.05 µM stood at 3.74%, the inhibition at 0.5 µM came out at 93.4%, the inhibition at 5 µM was 95.3% and the Test results is on record as “++”. Further, the IC50 in series [7] is more than 20 nM.
Take `CC(C)C[C@H](NC(=O)[C@H](CC(C)C)NC(=O)[C@H](Cc1ccccc1)NC(=O)c1cnccn1)B1OC2CC3C[C@@H](C3(C)C)[C@]2(C)O1` (stereo partly drawn) [Compound 5k, Pinanediol N-pyrazineformyl-L-phenylalanyl-L-leucyl-L-leucine Borate]: the melting point lay in the range of 68 to 70 °C. Moreover, half-maximal inhibition in series [2] (IC50) was put at 2.73 ± 1.04 nM. Also, it took 0.287 ± 0.019 nM to reach half-maximal inhibition in series [3] (IC50). Besides, in series [7], the half-maximal inhibitory concentration (IC50) is more than 20 nM.
Compound `CC(C)C[C@H](NC(=O)[C@H](Cc1ccccc1)NC(=O)[C@H](Cc1ccccc1)NC(=O)c1cnccn1)B(O)O` [Compound 6a, N-pyrazineformyl-L-phenylalanyl-L-phenylalanyl-L-leucine Boronic Acid] returned a melting point of 112 to 114 °C. In addition, the IC50 in series [2] was 10.9 ± 3.21 nM. This compound gave an IC50 in series [3] of 0.546 ± 0.077 nM. Further, in series [7], the IC50 was more than 20 nM.
On to `CC(C)C[C@H](NC(=O)[C@H](Cc1ccccc1)NC(=O)[C@H](CC(C)C)NC(=O)c1cnccn1)B(O)O` [Compound 6e, N-pyrazineformyl-L-leucyl-L-phenylalanyl-L-leucine Boronic Acid], for which the melting point lay in the range of 113 to 116 °C. Moreover, the IC50 in series [2] amounted to 5.14 ± 2.17 nM. Moreover, in series [3], the IC50 turned out to be 0.19 ± 0.017 nM. The concentration for half-maximal inhibition (IC50) in series [7] was more than 20 nM.
`CC(C)C[C@H](NC(=O)[C@H](Cc1ccccc1)NC(=O)[C@H](Cc1ccc(O)cc1)NC(=O)c1cnccn1)B1OC2CC3C[C@@H](C3(C)C)[C@]2(C)O1` (stereo partly drawn) [Compound 5d, Pinanediol N-pyrazineformyl-L-tyrosyl-L-phenylalanyl-L-leucine Borate] had a melting point of 90 to 92 °C. Further, in series [1], the Test results is “+”, the inhibition at 0.05 µM was -11.8%, the inhibition at 0.5 µM amounted to 35.9% and the inhibition at 5 µM worked out at 88.9%. Moreover, in series [2], half-maximal inhibition (IC50) required 4.76 ± 1.31 nM. The same compound gave an IC50 in series [3] of 0.295 ± 0.049 nM. Also, in series [4], the Test results is recorded as “++”, the inhibition at 0.05 µM amounted to 23.6%, the inhibition at 0.5 µM was 93.6% and the inhibition at 5 µM amounted to 97.8%. In series [5], the Test results is on record as “++”, the inhibition at 0.05 µM was found to be 5.52%, the inhibition at 0.5 µM is 52% and the inhibition at 5 µM is 93.1%. For the same compound, in series [6], the inhibition at 0.05 µM is 0.83%, the inhibition at 0.5 µM was 73.2%, the inhibition at 5 µM turned out to be 94.8% and the Test results is “++”. Besides, the 50% inhibitory concentration (IC50) in series [7] is more than 20 nM.
`CC(C)C[C@H](NC(=O)[C@H](Cc1ccccc1)NC(=O)[C@H](Cc1ccc2ccccc2c1)NC(=O)c1cnccn1)B1OC2CC3C[C@@H](C3(C)C)[C@]2(C)O1` (stereo partly drawn) [Compound 5b, Pinanediol N-pyrazineformyl-L-naphthylalanyl-L-phenylalanyl-L-leucine Borate] gave a melting point of 98 to 100 °C. In addition, in series [1], the Test results is reported as “++”, the inhibition at 0.05 µM was found to be 21.1%, the inhibition at 0.5 µM came to 88.1% and the inhibition at 5 µM stood at 88.1%. Further, the 50% inhibitory concentration (IC50) in series [2] was more than 20 nM. Also, in series [3], the midpoint of inhibition, the IC50, lay at 0.22 ± 0.106 nM. Besides, in series [4], the Test results is reported as “+++”, the inhibition at 0.05 µM was determined as 68.6%, the inhibition at 0.5 µM is 94.8% and the inhibition at 5 µM amounted to 96.5%. Besides, in series [5], the Test results is “++”, the inhibition at 0.05 µM came out at 35.9%, the inhibition at 0.5 µM is 66.7% and the inhibition at 5 µM was 91%. Further, in series [6], the inhibition at 0.05 µM was found to be 40.4%, the inhibition at 0.5 µM worked out at 95.1%, the inhibition at 5 µM is 95.8% and the Test results is “++”. Also, in series [7], the half-inhibitory concentration (IC50) was more than 20 nM.
On to `CC(C)C[C@H](NC(=O)[C@H](Cc1ccc(O)cc1)NC(=O)[C@H](Cc1ccccc1)NC(=O)c1cnccn1)B1OC2CC3C[C@@H](C3(C)C)[C@]2(C)O1` (stereo partly drawn) [Compound 5c, Pinanediol N-pyrazineformyl-L-phenylalanyl-L-tyrosyl-L-leucine Borate], for which the melting point was 119 to 120 °C. In series [1], the Test results was “+”, the inhibition at 0.05 µM is -10.5%, the inhibition at 0.5 µM was 1.94% and the inhibition at 5 µM came out at 99%. Also, 5.39 ± 0.368 nM corresponded to half-maximal inhibition in series [2] (IC50). Inhibition in series [3] was half-maximal at 0.335 ± 0.031 nM (IC50). In addition, in series [4], the Test results was “++”, the inhibition at 0.05 µM is 3.19%, the inhibition at 0.5 µM was 56% and the inhibition at 5 µM is 96.1%. In addition, in series [5], the Test results was “+”, the inhibition at 0.05 µM was 4.18%, the inhibition at 0.5 µM turned out to be 16.6% and the inhibition at 5 µM was 91.1%. In series [6], the inhibition at 0.05 µM was 1.84%, the inhibition at 0.5 µM came out at 29.8%, the inhibition at 5 µM turned out to be 91.4% and the Test results is on record as “+”. The half-inhibitory concentration (IC50) in series [7] was more than 20 nM.
Compound `CC(C)C[C@H](NC(=O)[C@H](Cc1ccccc1)NC(=O)[C@H](Cc1ccccc1)NC(=O)c1cnccn1)B1OC2CC3C[C@@H](C3(C)C)[C@]2(C)O1` (stereo partly drawn) [Compound 5a, Pinanediol N-pyrazineformyl-L-phenylalanyl-L-phenylalanyl-L-leucine Borate] had a melting point of 78 to 80 °C. For the same compound, the midpoint of inhibition in series [2], the IC50, lay at 8.33 ± 2.49 nM. Moreover, in series [3], 0.402 ± 0.024 nM corresponded to half-maximal inhibition (IC50). Moreover, the IC50 in series [7] is more than 20 nM.
